Laboratory results reported in article PMC3328629 (2012).

Legend:
[1] = molecular target: T1, S-adenosyl-L-homocysteine hydrolase (HsSAHH) (Homo sapiens, UniProt P23526); assay: biochemical
T1 sequence (P23526 2-432): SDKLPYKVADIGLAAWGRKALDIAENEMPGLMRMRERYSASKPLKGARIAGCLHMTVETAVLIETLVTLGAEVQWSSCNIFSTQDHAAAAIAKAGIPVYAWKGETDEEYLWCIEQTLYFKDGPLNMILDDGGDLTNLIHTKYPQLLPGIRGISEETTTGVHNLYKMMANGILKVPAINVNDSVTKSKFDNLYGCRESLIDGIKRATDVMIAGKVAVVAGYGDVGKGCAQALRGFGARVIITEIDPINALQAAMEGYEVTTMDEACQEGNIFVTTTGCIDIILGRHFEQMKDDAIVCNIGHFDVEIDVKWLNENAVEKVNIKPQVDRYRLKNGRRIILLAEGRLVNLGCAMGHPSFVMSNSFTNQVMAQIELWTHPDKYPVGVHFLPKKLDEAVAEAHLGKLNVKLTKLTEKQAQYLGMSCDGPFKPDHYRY

[2] = molecular target: T1, S-adenosyl-L-homocysteine hydrolase (HsSAHH)
[3] = molecular target: T1, S-adenosyl-L-homocysteine hydrolase (HsSAHH); assay: luciferase-coupled adenosine assay; assay type: biochemical
[4] = molecular target: T1, S-adenosyl-L-homocysteine hydrolase (HsSAHH); assay: Michaelis-Menten kinetics; assay type: biochemical

With Nc1ncnc2c1ncn2C[C@@H](O)[C@@H](O)C(=O)O [D-eritadenine] as the compound, how does the Ki [1] read?
Its Ki is 11.3 ± 0.6 nM.

With Nc1ncnc2c1ncn2[C@@H]1C=C(CO)[C@@H](O)[C@H]1O [INH, neplanocin A] as the compound, how does the “HPLC analysis of adenosine formation without coupling enzymes” value [2] read?
Its value is “Under these conditions (cf. Supplementary Methods, Supporting Information), INH totally inhibits SAHH”.

NC[C@H]1O[C@@H](n2cnc3c(N)ncnc32)[C@H](O)[C@@H]1O [INH-1, 5′-deoxy-5′-amino-β-D-adenosine] was tested. Which Ki [3] did it give?
Its Ki is 2170 ± 80 nM.

How did the Km [4] turn out when Nc1ncnc2c1ncn2[C@@H]1O[C@H](CSCC[C@H](N)C(=O)O)[C@@H](O)[C@H]1O [SAH, S-adenosyl-L-homocysteine] was run?
The Km was 22 ± 2 µM.
